# Source: patent US4156724A, “N-acylamino-alpha-arylacetamido cephalosporins and antibacterial compositions and methods containing them” (Sumitomo Chemical Company, Limited, priority 1974, dated 1979)
# Assays:
# Assay type in all cases: cell-based
# Serratia No. 72 = assay: Minimum Inhibitory Concentration, Serratia No. 72
# Protocol: (§1) anti-microbial activity tests were carried out on the compounds obtained in the Examples.
# Escherichia coli NIHJ = assay: Minimum Inhibitory Concentration, Escherichia coli NIHJ; conditions: Escherichia coli NIHJ; for MIC: read-out: Minimum Inhibitory Concentration
# Protocol: as §1
# [1] = tested on: Enterobacter aerogeneus No. 75; assay: Minimum Inhibitory Concentration, Enterobacter aerogeneus No. 75; conditions: Enterobacter aerogeneus No. 75; for MIC: read-out: Minimum Inhibitory Concentration
# Protocol: as §1
# [2] = tested on: Klebsiella pneumoniae 602; assay: Minimum Inhibitory Concentration, Klebsiella pneumoniae 602; conditions: for MIC: Klebsiella pneumoniae, 602, Klebsiella pneumoniae 602, read-out: Minimum Inhibitory Concentration
# Protocol: as §1
# Proteus vulgaris HX 19 = assay: Minimum Inhibitory Concentration, Proteus vulgaris HX 19; conditions: Proteus vulgaris HX 19; for MIC: HX19, read-out: Minimum Inhibitory Concentration
# Protocol: as §1
# [3] = tested on: Staphylococcus aureus 209 P; assay: Minimum Inhibitory Concentration, Staphylococcus aureus 209 P; conditions: Staphylococcus aureus 209 P; for MIC: read-out: Minimum Inhibitory Concentration
# Protocol: as §1
# [4] = tested on: Pseudomonas aeruginosa 104; assay: Minimum Inhibitory Concentration, Pseudomonas aeruginosa 104; conditions: Pseudomonas aeruginosa 104; for MIC: read-out: Minimum Inhibitory Concentration
# Protocol: as §1
# [5] = tested on: Staphylococcus aureus FS 289; assay: Minimum Inhibitory Concentration, Staphylococcus aureus FS 289; conditions: Staphylococcus aureus FS 289, strain resistant to penicillin; for MIC: FS289, read-out: Minimum Inhibitory Concentration
# Protocol: as §1
# *Staphylococcus aureus FS 289: strain resistant to penicillin
MIC (Serratia No. 72) [µg/mL],MIC (Escherichia coli NIHJ) [µg/mL],MIC [1] [µg/mL],MIC [2] [µg/mL],MIC (Proteus vulgaris HX 19) [µg/mL],MIC [3] [µg/mL],MIC [4] [µg/mL],MIC [5] [µg/mL],SMILES,Minimum Inhibitory Concentration (Serratia No. 72) [µg/mL],Minimum Inhibitory Concentration (Escherichia coli NIHJ) [µg/mL],Minimum Inhibitory Concentration [1] [µg/mL],Minimum Inhibitory Concentration ([2]; Klebsiella pneumoniae 602) [µg/mL],Minimum Inhibitory Concentration (Proteus vulgaris HX 19) [µg/mL],Minimum Inhibitory Concentration [3] [µg/mL],Minimum Inhibitory Concentration [4] [µg/mL],Minimum Inhibitory Concentration [5] [µg/mL]
> 200,25,25,12.5,0.2,0.39,6.25,6.25,Cc1nnc(SCC2=C(C(=O)O)N3C(=O)C(NC(=O)C(NC(=O)c4cncnc4O)c4ccc(N)cc4)C3SC2)s1 (stereo not shown) [Example 61],–,–,–,–,–,–,–,–
25,3.13,6.25,3.13,0.78,0.78,6.25,12.5,COc1cnc2c(O)c(C(=O)NC(C(=O)NC3C(=O)N4C(C(=O)O)=C(CSc5nnnn5C)CSC34)c3ccc(O)cc3)cnc2n1 (stereo not shown) [Example 172],–,–,–,–,–,–,–,–
50,6.25,12.5,6.25,0.1,0.39,12.5,6.25,"Cc1nnc(SCC2=C(C(=O)O)N3C(=O)C(NC(=O)[C@H](NC(=O)c4cnccc4O)c4ccc(O)cc4)C3SC2)s1 (stereo partly drawn) [Example 125, 7-[D-α-(4-Hydroxypyridine-3-carbonamido)-α-p-hydroxyphenylacetamido]-3-(2-methyl-1,3,4-thiadiazol-5-yl)thiomethyl-3-cephem-4-carboxylic Acid]",–,–,–,–,–,–,–,–
25,3.13,6.25,3.13,0.2,1.56,6.25,12.5,COc1cc(C(NC(=O)c2cnc3cccnc3c2O)C(=O)NC2C(=O)N3C(C(=O)O)=C(CSc4nnc(CO)s4)CSC23)ccc1O (stereo not shown) [Example 157],–,–,–,–,–,–,–,–
50,6.25,12.5,6.25,0.2,0.39,6.25,6.25,NC(=O)Nc1ccc([C@@H](NC(=O)c2ccnnc2O)C(=O)N[C@@H]2C(=O)N3C(C(=O)O)=C(CSc4cnn[nH]4)CS[C@H]23)cc1 [Example 18],–,–,–,–,–,–,–,–
–,–,–,–,–,–,–,–,CC(=O)OCC1=C(C(=O)[O-])N2C(=O)C(NC(=O)C(NC(=O)c3ccnnc3O)c3ccc(NC(N)=O)cc3)C2SC1.[Na+] (stereo not shown) [Example 4],100,6.25,50,6.25,0.2,0.39,25,6.25
12.5,1.56,3.13,1.56,0.2,1.56,3.13,6.25,Cn1nnnc1SCC1=C(C(=O)O)N2C(=O)C(NC(=O)C(NC(=O)c3cnc4cccnc4c3O)c3ccc(O)c(O)c3)C2SC1 (stereo not shown) [Example 167],–,–,–,–,–,–,–,–
50,12.5,25,6.25,0.2,0.39,12.5,6.25,NC(=O)Nc1ccc([C@@H](NC(=O)c2cncnc2O)C(=O)N[C@@H]2C(=O)N3C(C(=O)O)=C(CSc4nncs4)CS[C@H]23)cc1 [Example 19],–,–,–,–,–,–,–,–
12.5,6.25,12.5,3.13,0.39,1.56,6.25,6.25,CSc1cnc2c(O)c(C(=O)NC(C(=O)NC3C(=O)N4C(C(=O)O)=C(CSc5nnc(C)s5)CSC34)c3ccc(CO)cc3)cnc2n1 (stereo not shown) [Example 104],–,–,–,–,–,–,–,–
25,1.56,6.25,1.56,0.2,1.56,6.25,6.25,O=C(O)C1=C(CSc2cnn[nH]2)CSC2C(NC(=O)C(NC(=O)c3cnc4cccnc4c3O)c3ccc(CO)cc3)C(=O)N12 (stereo not shown) [Example 98],–,–,–,–,–,–,–,–
50,6.25,12.5,6.25,0.78,1.56,12.5,6.25,CC(=O)OCC1=C(C(=O)O)N2C(=O)C(NC(=O)C(NC(=O)c3cnc4nc(C)ccc4c3O)c3ccc(CO)cc3)C2SC1 (stereo not shown) [Example 99],–,–,–,–,–,–,–,–
